Measurements published in patent publication US10253274B2, “Compounds and methods for inhibiting corrosion in hydrocarbon processing units” (General Electric Company, priority 2012, dated 2019).
Where two headings read alike, the source gives them in different places.

How the values were obtained:
Boiling point = settings: Table 2
[1] = Neutralization efficiency by two-phase titration (pH at amine titrant concentration); format: physicochemical; settings: 100° C.; for Neutral. Efficiency pH at 250 ppm: 250 ppm amine titrant; for Neutral. Efficiency pH at 500 ppm: 500 ppm amine titrant; for Neutral. Efficiency pH at 1000 ppm: 1000 ppm amine titrant
Procedure: Several amines were tested to determine their efficiencies in neutralizing acidic species and reducing deposits of hydrochloride and amine salts. The neutralization efficiency of these amines was tested using two-phase titration. For each amine tested, a titrand (100 ml) was placed in a flask. The titrand was designed to simulate an initial condensate and comprised 90 vol % naphtha and 10 vol % acidic water. The titrand was heated to 100° C. and maintained at that temperature while amine titrant was added to the flask.
A second set of tests were performed using some of the effective amines above. Additional tertiary amines were also tested and found to be effective. The additional tertiary amines were N-methyl piperidine, 2-dimethylamino 2-methyl 1-propanol (“DMAMP”) in an azeotropic solution comprising 80 wt % amine, N,N,N′,N′-tetramethyldiamino methane (“TMMD”), dimethyl tertiary butanolamine (“DMTBA”), and dimethyl methoxypropylamine (“DMMOPA”). The neutralization efficiency of these amines was tested using two-phase titration. For each amine tested, a titrand (100 ml) was placed in a flask. The titrand was designed to simulate an initial condensate and comprised 90 vol % naphtha and 10 vol % acidic water. The titrand was heated to 100° C. and maintained at that temperature while amine titrant was added to the flask. The tests were repeated 3 times in the second set of tests. The data in Table 2 are the averages of the 3 repeated tests.

[2] = Amine-HCl salt precipitation potential index (Salt PPI) relative to ammonia salt; format: physicochemical
Source text: Without limiting this specification to any particular theory of operation, the overall efficiency of a given amine may be predicted upon assessment of several factors. One such factor is the amine-HCl salt precipitation potential index (“Salt PPI”). The Salt PPI may also be known by those in the art as the salt volatility index. These indices are merely a comparison of the precipitation potential of the amine salt to the salt of a typical neutralizing compound used in hydrocarbon refining, ammonia.
Salt PPI may be calculated from the equation: […]
If one were to substitute the vapor pressure of ammonia for the vapor pressure of the amine in the equation, the Salt PPI would be 1.0. Effective amines are those that are as good, if not better than the typical additive, ammonia. Thus, effective amines would have a Salt PPI of equal to or less than 1.0. Other neutralizers commonly used in hydrocarbon refining are trimethylamine and N-methylmorpholine.

pKa of the amine = format: physicochemical
Source text: Another factor indicative of the overall efficiency of a given amine is the logarithm of the acid dissociation constant, pKa. Generally, amines with higher pKa values are more efficient neutralizers. Accordingly, in another embodiment, the treatment composition may comprise an amine with a pKa equal to or greater than about 5.0.

[3] = Table 2, second set, averages of 3 repeated tests
[4] = Table 1, average over 225 to 300° F., ammonia benchmark = 1.0
[5] = Table 2, average over 225 to 300° F., ammonia benchmark = 1.0
[6] = Table 3, exemplary treatment composition
[7] = Table 4, exemplary treatment composition

| Solubility Oil/Water (Solubility Oil/Water; Table 1) | Solubility Oil/Water (Solubility Oil/Water; Table 2) | Boiling Point (Boiling point) | Neutral. Efficiency pH at 250 ppm ([1]; Table 1, first set of tests) | Neutral. Efficiency pH at 500 ppm ([1]; Table 1, first set of tests) | Neutral. Efficiency pH at 1000 ppm ([1]; Table 1, first set of tests) | Neutral. Efficiency pH at 250 ppm [1, 3] | Neutral. Efficiency pH at 500 ppm [1, 3] | Neutral. Efficiency pH at 1000 ppm [1, 3] | Salt PPI [2, 4] | Salt PPI [2, 5] | pKa (pKa of the amine; Table 1, read-out: pKa) | Solubility Oil/Water (Solubility Oil/Water; [6]) | Solubility Oil/Water (Solubility Oil/Water; [7]) | pKa (pKa of the amine; Table 2, read-out: pKa) | Salt PPI ([2]; ammonia salt is the benchmark) | pKa (pKa of the amine; Table 1) | Compound | pKa (pKa of the amine; Table 2) |
| --- | --- | --- | --- | --- | --- | --- | --- | --- | --- | --- | --- | --- | --- | --- | --- | --- | --- | --- |
| Water | Water | 87 °C | 1.4 | 8.5 | 9.6 | 1.4 | 8.5 | 9.6 | <0.1 | 0.30 | 9.9 | – | – | – | – | – | CC(C)C(C)N (stereo not shown) [1,2 Dimethyl propyl amine, 1,2 dimethylpropylamine] | – |
| Water | Water | 132 °C | 3.7 | 5.5 | 7.6 | 3.7 | 5.5 | 7.6 | <0.1 | 0.18 | 8.2 | Water | Water | – | – | – | CN1CCN(C)CC1 [1,4-dimethylpiperazine] | – |
| – | Water | 98 °C | – | – | – | 2.3 | 6.3 | 9.5 | – | 0.27 | – | – | – | – | – | – | CN(C)C(C)(C)CO [2-Dimethylamino 2-methyl 2-propanol (DMAMP) 80% azeotrope so] [2-dimethylamino 2-methyl 1-propanol] | – |
| – | – | – | – | – | – | – | – | – | – | – | – | – | – | 10.2 | – | – | CN(C)C(C)(C)CO [2-dimethylamino 2-methyl 1-propanol] | – |
| Water | – | – | 2.4 | 4.1 | 5.0 | – | – | – | <0.1 | – | 5.61 | – | – | – | – | – | CCN(O)CC [Diethylhydroxylamine] | – |
| – | – | – | 2.2 | 3.6 | 5.9 | – | – | – | 0.12 | – | 7.7 | – | – | – | – | – | C#CCN(CC)CC [Diethylpropargylamine, diethylpropargylamine] | – |
| – | Water | 124 °C | – | – | – | – | – | – | – | 0.20 | – | – | – | – | – | – | COCCCN(C)C [Dimethyl methoxypropyl-amine (DMMOPA), dimethyl methoxypropylamine] | – |
| – | Water | 150 °C | – | – | – | – | – | – | – | 0.32 | – | – | – | – | – | – | CN(C)C(C)(C)CO [Dimethyl tertiarybutanolamine (DMTBA), dimethyl tertiary butanolamine] | 8.9 |
| Water | – | – | 2.6 | 6.5 | 8.5 | – | – | – | 0.38 | – | 8.89 | – | – | – | – | – | NCc1ccco1 [Furfurylamine, furfurylamine] | – |
| – | – | – | – | – | – | 7.54 | 8.87 | 9.25 | – | 0.30 | – | – | – | – | – | – | CN(C)CN(C)C [N,N,N′,N′-tetramethyldiaminomethane] | – |
| – | Water | 107 °C | – | – | – | 2.1 | 7.5 | 8.1 | – | 0.24 | – | – | – | 10.1 | – | – | CN1CCCCC1 [N-methyl piperidine] | – |
| – | – | – | 1.9 | 2.0 | 5.0 | – | – | – | <0.1 | – | 10.3 | – | – | – | – | – | CCCCN(C)CCCC [N-methyldibutylamine] | – |
| – | – | – | 2.4 | 2.8 | 5.6 | – | – | – | <0.1 | – | 10.1 | – | – | – | – | – | CCCN(C)CCC [N-methyldipropylamine] | – |
| – | – | 116 °C | 2.4 | 5.4 | 6.8 | 2.4 | 5.4 | 6.8 | 0.18 | 0.18 | 7.1 | – | – | – | – | – | CN1CCOCC1 [N-methylmorpholine (NMM), N-methylmorpholine, reference compound] | – |
| Water | Water | 81 °C | 2.2 | 6.8 | 8.1 | 2.2 | 6.8 | 8.1 | <0.1 | 0.10 | 10.3 | Water | Water | – | – | – | CN1CCCC1 [N-methylpyrrolidine] | – |
| – | – | – | – | – | – | – | – | – | – | – | – | – | – | – | 1.0 | – | N [ammonia, reference compound] | – |
| – | – | – | 2.2 | 3.0 | 7.6 | – | – | – | 0.24 | – | – | – | – | – | – | 10.91 | CCCNCCC [di-N-propyl amine, di-N-propylamine] | – |

| Compound | Solubility Oil/Water (Solubility Oil/Water; Table 1) | Solubility Oil/Water (Solubility Oil/Water; Table 2) | Boiling Point (Boiling point) | Neutral. Efficiency pH at 250 ppm ([1]; Table 1, first set of tests) | Neutral. Efficiency pH at 500 ppm ([1]; Table 1, first set of tests) | Neutral. Efficiency pH at 1000 ppm ([1]; Table 1, first set of tests) | Neutral. Efficiency pH at 250 ppm [1, 3] | Neutral. Efficiency pH at 500 ppm [1, 3] | Neutral. Efficiency pH at 1000 ppm [1, 3] | Salt PPI [2, 4] | Salt PPI [2, 5] | pKa (pKa of the amine; Table 1, read-out: pKa) | Solubility Oil/Water (Solubility Oil/Water; [6]) | Solubility Oil/Water (Solubility Oil/Water; [7]) | pKa (pKa of the amine; Table 2, read-out: pKa) | Salt PPI ([2]; ammonia salt is the benchmark) | pKa (pKa of the amine; Table 1) | pKa (pKa of the amine; Table 2) |
| --- | --- | --- | --- | --- | --- | --- | --- | --- | --- | --- | --- | --- | --- | --- | --- | --- | --- | --- |
| CN(C)C1CCCCC1 [Dimethylcyclohexylamine, dimethylcyclohexylamine] | – | – | – | 1.8 | 1.9 | 5.2 | – | – | – | 0.10 | – | 10 | – | – | – | – | – | – |
| CN(C)CCN(C)C [N,N,N′,N′-tetramethylethylenediamine] | Water | Water | 122 °C | 4.7 | 6.7 | 8.3 | 4.7 | 6.7 | 8.3 | 0.27 | 0.48 | 8.97 | – | – | – | – | – | 8.97 |
| CN(C)C [Trimethylamine (TMA), Trimethylamine, reference compound] | Water | Water | 2.87 °C | 2.6 | 8.0 | 8.8 | 2.6 | 8.0 | 8.8 | 0.10 | 0.10 | 9.76 | – | – | – | – | – | 9.76 |
